The conditions of data set [1]: cited from earlier work.
The subject of data set [2] is Human umbilical vascular endothelial cells (HUVEC). Description: Stimulation of intracellular cGMP production in HUVEC (BIOTRACK cGMP enzyme immunoassay). It counts as cell-based. The following applies: 30 minutes incubation, 0.5 mM IBXM. The method, then:
Human umbilical vascular endothelial cells (HUVEC) were cultured in 96-well plates using endothelial cell medium (EGM™-2) supplemented with the components provided by the EGM™-2 BulletKit (CC-3162) (Clonetics, East Rutherford, N.J.). After cells reached about 80% confluency, the plates were washed with phosphate-buffered saline ([…], SEQ ID NO:35) dissolved in EBM-2 that contained supplements and 0.5 mM IBXM. After incubation, the culture medium was aspirated, and the cells were assayed for intracellular cGMP production using the BIOTRACK cGMP enzyme immunoassay kit (Amersham Pharmacia Biotech). The amount of cGMP was calculated according the standard curve that was generated from parallel reactions within the same experiment.

Data set [3] concerns carotid arteries from New Zealand White Rabbits. In words: Vasoactivity in organ chamber, phenylephrine pre-contracted carotid artery rings. The following applies: rabbit carotid rings. The method, then:
Vasoactivity was assessed in an organ chamber using carotid arteries from New Zealand White Rabbits. Following euthanization, carotids were immediately immersed in cold Krebs solution. Arterial rings ˜4 mm in length (n=6) were dissected, connected to isometric force displacement transducers, and suspended in organ chambers filled with 25 mL of Krebs (94% O2, 6% CO2). Rings were equilibrated for 1 hour at 37° C. and then incrementally stretched to 3 g. Viability and maximum contraction was determined with 60 mM KCl. After 3 washes with Krebs solution and further equilibration, arteries were pre-contracted with phenylephrine in a titrated fashion to achieve ˜80% stable maximal contraction. To study vasoactivity, BNP3 (final cone 10^−10 to 10^−7 M) or vehicle was added to the organ bath in a cumulative manner. Following three further washes and equilibration, the arteries were re-contracted and viability was confirmed by assessment of endothelium independent responses with incremental doses of sodium nitroprusside (10^−9 to 10^−5 M), an exogenous NO donor.

The next data set relates to normal dogs. In words: Intrarenal arterial infusion in normal dog. Type of data set: in vivo. Particulars: intrarenal arterial infusion 0.03 ng/kg/min. The method, then:
To determine the physiological effects of BNP-3, the synthesized peptide was delivered via a direct intrarenal arterial infusion (0.03 ng/kg/min) in normal dogs. Physiologic assessment was performed following a 15 minute run-in period. […] Both of these increases normalized during a washout period.

Take “recombinant BNP: recombinant brain natriuretic peptide, 32 amino acid peptide with a ring structure (SEQ ID NO:16)”: in data set [1] (in vivo), the “effect on heart rate” value was “no effect” and the pro-arrhythmic effect entry is reported as “not pro-arrhythmic”. Further, in data set [1] (intravenous therapy), the cardiac index entry is given as “increases”, the “pulmonary capillary wedge pressure” value is given as “significantly decreases” and the systemic vascular resistance result is on record as “significantly decreases”.

For “SPKMVQGSGCFGRKMDRISSSSGLGCKVVQKENQTFPPGFL (listed as Homo sapiens) [BNP3]”, the cGMP in data set [2] (BNP3 10^−8 M) was 26 fmol/well; in data set [2] (BNP3 10^−9 M) it was 18 fmol/well; in data set [2] (BNP3 10^−10 M), 1 fmol/well. Also, the “concentration at which vasorelaxation began” value in data set [3] (cumulative addition 10^−10 to 10^−7 M) is reported as 10^−9 M. Further, the complete relaxation is reported as about 95% in data set [3] (dose 10^−7M) and about 60% in data set [3] (dose 10^−8M). Further, the increased urinary flow in the data set with normal dogs is reported as 6-8 fold. For the same substance, the “plasma cGMP” value with normal dogs is given as “elevation of plasma cGMP”. Further, the “urinary excretion of sodium” value in the data set with normal dogs was “increased urinary excretion of sodium”.

Values taken from patent US8912137B2, “Method for increasing natriuresis or diuresis by isoforms of brain natriuretic peptide” (Mayo Foundation for Medical Education and Research, priority 2003, dated 2014).
